Data as given in patent publication US10945434B2, “Azole derivative, intermediate compound, method for producing azole derivative, agricultural or horticultural chemical agent, and protective agent for industrial material” (priority 2017, dated 2021).

Columns and labels:
[1] = system: gray mold fungi; test: Cucumber gray mold disease control effect test; type: in vivo, Botrytis cinerea; conditions: 100 g/ha; spray on cotyledon cucumber; 4 days after the inoculation
Description: The compounds of the present invention were adjusted to a predetermined concentration ([…]) according to Test Example 2 in a cotyledon cucumber (variety: Sagami Hanjiro Cucumber) cultivated using a rectangular plastic pot (6 cm×6 cm), and sprayed at a ratio of 1,000 L/ha. After air-drying the spray leaves, a paper disc (8 mm in diameter) impregnated with the spore solution of gray mold fungi was placed and kept at 20° C. under high humidity conditions. On 4 days after the inoculation, a morbidity of cucumber gray mold disease was examined, and a control value was calculated by the following Equation. Control value (%)=(1−average morbidity of sprayed area/average morbidity of unsprayed area)×100
In addition, the morbidity was determined based on the following Table 12.

[2] = system: puccinia recondite-causing germs; test: Puccinia Recondite control effect test (spray on wheat); type: in vivo
[3] = system: Septoria tritici; conditions: in vivo
Description: The severity of flag leaf and second leaf was evaluated after 50 days lapsed after the second spraying. The control value was calculated from the average severity of the flag leaf and the second leaf. Control value (%)=(1−average severity of treated area/average severity of untreated area)×100

[4] = system: puccinia recondite-causing germs; conditions: in vivo
[5] = 3.13 g/ha, spray on second leaf stage wheat, 14 days after the inoculation

SMILES | control value [1] [%] | control value ([2]; in vivo) [%] | control value [3] [%] | Control value (%) [4] [%] | control value [2, 5] [%]
COC(=O)C(O)(Cn1cncn1)c1ccc(Oc2ccccc2)cc1 (stereo not shown) [control compound B, methyl 2-hydroxy-2-(4-phenoxyphenyl)-3-(1H-1,2,4-triazol-1-yl)propanoate] | 0 |  |  |  | 
CC(O)(Cn1cncn1)c1ccc(Oc2ccc(Cl)cc2)cc1C(F)(F)F (stereo not shown) |  | 20 | 88 | 86 | 
COC(=O)C(O)(Cn1cncn1)c1ccc(Oc2cccc(Cl)c2)cc1Cl (stereo not shown) [Compound I-20, methyl 2-(2-chloro-4-(3-chlorophenoxy)phenyl)-2-hydroxy-3-(1H-1,2,4-triazol-1-yl)propanoate] |  |  |  |  | 80
COC(=O)C(O)(Cn1cncn1)c1ccc(Oc2ccc(Cl)cc2)cc1Cl (stereo not shown) [Compound I-1, methyl 2-hydroxy-2-(2-chloro-4-(4-chlorophenoxy)phenyl)-3-(1H-1,2,4-triazol-1-yl)propanoate] |  |  |  | 99 | 73
